In patent US9907797B2, “Combination therapies for overcoming resistance to mitotic agents during chemotherapy” (EMORY UNIVERSITY, priority 2014, dated 2018):

Assays:
PARP1-CHFR interaction = biological target: T1, PARP1-CHFR interaction (Homo sapiens, UniProt Q96EP1); assay: Glutathione affinity pull-down of GST tagged PARP1 with CHFR in HEK293 cells; type: cell-based; settings: 10 uM, 16 hours
T1 construct: expressed in transfected cells; CHFR endogenous
T1 sequence (Q96EP1 1-664): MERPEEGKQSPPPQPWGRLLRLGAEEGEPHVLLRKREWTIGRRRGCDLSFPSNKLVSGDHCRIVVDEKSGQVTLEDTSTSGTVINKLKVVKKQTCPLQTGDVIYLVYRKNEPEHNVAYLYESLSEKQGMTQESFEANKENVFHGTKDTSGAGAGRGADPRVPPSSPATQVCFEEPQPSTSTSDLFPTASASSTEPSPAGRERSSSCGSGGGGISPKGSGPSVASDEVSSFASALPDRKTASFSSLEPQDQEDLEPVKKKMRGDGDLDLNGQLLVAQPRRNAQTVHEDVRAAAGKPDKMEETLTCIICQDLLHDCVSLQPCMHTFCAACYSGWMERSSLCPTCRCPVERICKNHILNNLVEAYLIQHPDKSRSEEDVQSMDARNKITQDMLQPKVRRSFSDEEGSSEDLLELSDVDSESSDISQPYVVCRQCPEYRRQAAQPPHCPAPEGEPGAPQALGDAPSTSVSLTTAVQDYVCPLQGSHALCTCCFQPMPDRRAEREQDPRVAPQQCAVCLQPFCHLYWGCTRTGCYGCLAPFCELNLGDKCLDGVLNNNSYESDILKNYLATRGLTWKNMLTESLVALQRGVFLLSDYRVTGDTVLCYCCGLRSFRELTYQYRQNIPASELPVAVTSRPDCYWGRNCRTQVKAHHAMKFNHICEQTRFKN
Description: In an attempt to generate possible lead compounds for the pharmacologic inhibition of the CHFR-PARP1 interaction, a high throughput computational screen of 5,256,508 chemical structures in the MCULE database of purchasable compounds using the AutoDockVina algorithm against the published crystal structure of the CHFR-PBZ domain was performed. The 10 most promising ‘hits’ based on Autodock Vina docking scores (<−9.7) were selected for further characterization. Commercially available compounds were tested for their impact on nuclear CHFR levels (FIG. 3A). Several compounds, including ‘A2’, ‘A3’, ‘A4’ and ‘A6’ decreased CHFR levels assayed by western blotting of whole cell extracts. The impact of the above referenced compounds on the PARP1/CHFR interaction were evaluated. HEK293 cells were transfected with GST tagged PARP1 and the interaction with CHFR determined in pull down assays for those 4 compounds. […] In contrast to treatment with ABT-888, ‘A3’ completely disrupted the interaction between GST-tagged PARP-1 and CHFR (FIG. 3B). […] Since it is possible that the co-immunoprecipitation between PARP-1 and CHFR after ‘A3’ treatment was negative due to the fact that CHFR was degraded, the experiment was repeated after transfection with the Ring-domain deleted ΔR-CHFR construct, which maintained both stable CHFR and PARP1 levels even after treatment with ‘A3’. […]

A549 cells [1] = assay: Cell cycle analysis by flow-cytometry, antephase checkpoint; type: cell-based; settings: unsynchronized A549 cells, 12 hours, docetaxel 50 nM with A3 10 uM
Text: Cell cycle arrest at G2/M in response to microtubular damage is a hallmark of a functional antephase checkpoint.

A549 cells [2] = assay: Cell viability assay, A3 with docetaxel; type: cell-based
[3] = test system: CHFR expressing cell lines; assay: Colony formation assays on a panel of cell lines of different cancer types; type: cell-based
Description: Various cell lines of different tissues of origin and with different CHFR expression status were exposed to 1 hour of docetaxel and 72 hours of ‘A3’. Effects were defined as 1−colony count (treatment)/colony count (control). The nature of the interaction between the two compounds was analyzed by the Bliss additivity method. […] For subsequent colony formation assays, cell lines were characterized into CHFR expressing vs. CHFR deficient cell lines by Western-Blot.
Finally, colony formation assays were performed on a panel of cell lines of different cancer types such as lung-, breast-, and colon cancer.

H460 cell line = assay: Tumor growth in H460 mouse xenografts; type: in vivo, nude mice
Description: Pharmacokinetics of A3 were performed at various time points after iv and oral administration of a single dose of ‘A3’ at 10 mg/kg. 2.5×10^5 H460 cells were transplanted into the flank of nude mice were. 5 days after transplant, I.P. injection of DMSO, A3, docetaxel, or combination commenced. Explanted tumors are smallest in mice that were treated with combination therapy.
The in-vivo effects of ‘A3’, docetaxel and the combination on tumor growth in mouse xenografts, who were previously injected with the H460 cell line were evaluated.

CHFR = biological target: T2, CHFR (Homo sapiens, UniProt Q96EP1); assay: CHFR protein levels in A549 nuclear extracts; type: cell-based; set-up: endogenous in cells; host or cells: A549
T2 sequence (Q96EP1 1-664): T1 sequence (Q96EP1 1-664)
Description: HEK293 cells were stably transfected with the pDEST27-AR-CHFR construct. Deletion of the RING domain in this construct leads to both stable CHFR and PARP1 expression that is unaltered by treatment with increasing concentrations of ‘A3’ for 16 hours. Nonetheless, the interaction between glutathione-affinity purified CHFR-ΔR and PARP1 was decreased by ‘A3’ in a dose dependent fashion. A549 cells were incubated for 16.5 hrs with MG132 and indicated A3 concentration for 16 hrs. At 10 uM A3 concentration CHFR staining is diminished in the nucleus Cells are stained with CHFR.
In an attempt to generate possible lead compounds for the pharmacologic inhibition of the CHFR-PARP1 interaction, a high throughput computational screen of 5,256,508 chemical structures in the MCULE database of purchasable compounds using the AutoDockVina algorithm against the published crystal structure of the CHFR-PBZ domain was performed. The 10 most promising ‘hits’ based on Autodock Vina docking scores (<−9.7) were selected for further characterization. Commercially available compounds were tested for their impact on nuclear CHFR levels (FIG. 3A). […] The impact of the above referenced compounds on the PARP1/CHFR interaction were evaluated. HEK293 cells were transfected with GST tagged PARP1 and the interaction with CHFR determined in pull down assays for those 4 compounds. […]

## Cc1ccc(N2C(=O)NC(=O)C(=Cc3cn(Cc4ccccc4)c4ccccc34)C2=O)cc1C [A3, 5-((1-benzyl-1H-indol-3-yl)methylene)-1-(3,4-dimethylphenyl)pyrimidine-2,4,6(1H,3H,5H)-trione]
PARP1-CHFR interaction
  interaction between PARP1 and CHFR: completely inhibited an interaction between PARP1 and CHFR
A549 cells [1]
  docetaxel induced cell cycle arrest: prevented docetaxel induced cell cycle arrest
A549 cells [2]; 10 and 20 uM/nM concentrations
  nature of interaction of A3 and docetaxel by combination index: synergistic effects
A549 cells [2]; A3 plus docetaxel, 10 and 20 nM concentrations, 72 hours, p<0.01
  cell viability, combination treated cells: statistically significantly decreased viability
A549 cells [2]; A3 with docetaxel, A549 cells, 72 hours, Chou-Talaley method
  Combination index (CI): < 1
[3]; CHFR expressing cell line H460
  synergy between A3 and docetaxel, colony formation (Bliss additivity): strong synergy
[3]; CHFR expressing cell lines other than EKVX, 1 hour docetaxel, 72 hours A3
  synergy between A3 and docetaxel, colony formation (Bliss additivity): synergy between ‘A3’ and docetaxel was observed for all other CHFR expressing cell lines
H460 cell line; A3 alone compared to DMSO alone, I.P.
  tumor growth: did not have a discernable effect on tumor growth
H460 cell line; A3 given 4 hours prior to docetaxel, compared to docetaxel alone
  tumor size: significantly decreased tumor size
CHFR; 10 uM, 16 hrs, A549
  CHFR protein levels: complete disappearance of CHFR
CHFR; low concentrations of A3
  CHFR protein levels: initial increase in CHFR protein levels
